Values after ≈ are worked out from the molar mass of the structure shown. “Also recorded” adds a separate entry of the source.
Legend:
Assay type in all cases: physicochemical
[1] = Solubility data for Compound 1 drug substance
[2] = Bulk stability of Compound 1 Form B (1 week stress); settings: for Bulk (XRPD) crystallinity / Bulk (XRPD) form / Color / Purity, Bulk (HPLC): Solid state
Protocol: Compound 1 Form B was placed at 25° C./92% RH in an open container, at 40° C./75% RH in an open container and at 60RC in a closed container for 1 week. Samples after the stress were characterized by XRPD and HPLC and inspected for color change.

[3] = Water sorption and desorption (DVS) of Compound 1 Form B; settings: for 1st desorp. Weight % change / 1st sorp. Weight % change / 2nd desorp. Weight % change / 2nd sorp. Weight % change: 25° C.
Protocol: Water sorption and desorption behavior of Compound 1 Form B was investigated by DVS at 25° C. with a cycle of 40-0-95-0-40% RH, dm/dt 0.002, min. equilibration time 60 min and maximum equilibration time 360 min XRPD was measured after the DVS test to determine form change.

[4] = Equilibration with solvents at 25° C. for 4 weeks (XRPD)
Protocol: About 50 mg of Compound 1 free Form A was equilibrated in 0.1-1 mL of solvents at 25° C. for 4 weeks with a stirring bar on a magnetic stirring plate at a rate of 300 rpm. The obtained suspensions were filtered through a 0.45 μm nylon membrane filter by centrifugation at 14,000 rpm. Solid parts (wet cakes) were investigated by XRPD.

[5] = Crystallization by addition of anti-solvent
Protocol: About 50 mg of Compound 1 Form A was dissolved in the minimal amount of selected good solvents at ambient temperature (about 20-25° C.). Obtained solutions were filtered through a 0.45 μm syringe membrane filter. […] Precipitates were collected by centrifugation filtration through a 0.45 μm nylon membrane filter at 14,000 rpm. Solid parts (wet cakes) were investigated by XRPD.

[6] = 25° C./92% RH, open container, 1 week
[7] = 40° C./75% RH, open container, 1 week
[8] = 60° C., tight container, 1 week
[9] = Acetone/water (v:v = 86:14) a.w. = 0.6
[10] = Acetonitrile/water (v:v = 96:4) a.w. = 0.6
[11] = DMF/water (v:v = 73:27) a.w. = 0.6
[12] = Methanol/water (v:v = 69:31) a.w. = 0.6
[13] = THF/water (v:v = 82:18) a.w. = 0.9
[14] = THF/water (v:v = 92:8) a.w. = 0.6
[15] = Acetone (3) / anti-solvent Heptane (2) mL

SMILES: CCN(C)S(=O)(=O)Nc1ccc(F)c(Oc2ccc3ncn([C@H]4COC5(CCN(C(=O)CC6(O)CCN(c7cc8c(cc7F)c(N7CCC(=O)NC7=O)nn8C)CC6)CC5)C4)c(=O)c3c2)c1C#N [Compound 1, (3R)-3-[6-[2-cyano-3-[[ethyl(methyl)sulfamoyl]amino]-6-fluorophenoxy]-4-oxoquinazolin-3-yl]-8-[2-[1-[3-(2,4-dioxo-1,3-diazinan-1-yl)-5-fluoro-1-methylindazol-6-yl]-4-hydroxypiperidin-4-yl]acetyl]-1-oxa-8-azaspiro[4.5]decane]
- solubility ([1]; FaSSIF, pH 6.48, fassif): 5840 µg/mL (≈ 6.1 mM)
- solubility ([1]; FeSSIF, pH 4.86, fessif): 1350 µg/mL (≈ 1.41 mM)
- solubility ([1]; SGF, pH 1.74, simulated gastric fluid): 6580 µg/mL (≈ 6.87 mM)
- solubility ([1]; aqueous buffer, 50 mM pH 6.8 phosphate buffer solution, pH 6.76): 1530 µg/mL (≈ 1.6 mM)
- solubility ([1]; aqueous buffer, 50 mM pH 7.4 phosphate buffer solution, pH 7.40): 8790 µg/mL (≈ 9.18 mM)
- solubility ([1]; aqueous buffer, 100 mM pH 3.0 citrate buffer solution, pH 3.02): 2090 µg/mL (≈ 2.18 mM)
- solubility ([1]; aqueous buffer, 100 mM pH 4.5 citrate buffer solution, pH 4.53): 3160 µg/mL (≈ 3.3 mM)
- solubility ([1]; aqueous buffer, pH 9.0 NaOH solution, pH 8.55): 21600 µg/mL (≈ 22.5 mM)
- solubility ([1]; pH 8.9, Purified water, pH 8.90): 42400 µg/mL (≈ 44.3 mM)
- solubility ([1]; simulated gastric fluid, pH 1.2 HCl/KCl solution, pH 1.17): 23000 µg/mL (≈ 24 mM)
- solubility ([1]; simulated gastric fluid, pH 2.0 HCl/KCl solution, pH 1.95): 4350 µg/mL (≈ 4.54 mM)

SMILES: CCN(C)S(=O)(=O)Nc1ccc(F)c(Oc2ccc3ncn([C@H]4COC5(CCN(C(=O)CC6(O)CCN(c7cc8c(cc7F)c(N7CCC(=O)NC7=O)nn8C)CC6)CC5)C4)c(=O)c3c2)c1C#N [Compound 1 Form B]
- Bulk (XRPD) crystallinity [2, 6]: No change in crystallinity
- Bulk (XRPD) form [2, 6]: Form B
- Color [2, 6]: No change of color
- Purity, Bulk (HPLC) [2, 6]: 99.2%
- Bulk (XRPD) crystallinity [2, 7]: No change in crystallinity
- Bulk (XRPD) form [2, 7]: Form B
- Color [2, 7]: No change of color
- Purity, Bulk (HPLC) [2, 7]: 99.3%
- Bulk (XRPD) crystallinity [2, 8]: No change in crystallinity
- Bulk (XRPD) form [2, 8]: Form B
- Color [2, 8]: No change of color
- Purity, Bulk (HPLC) [2, 8]: 99.3%
- Bulk (XRPD) form ([2]; photo (visible light, 1.2 million lux-hrs)): Form B
- Bulk stability (purity, crystal form, crystallinity) ([2]; one week, 25° C./92% RH open, 40° C./75% RH open, 60° C. tight container): excellent chemical and physical stability without any changes in purity, crystal form and crystallinity; also recorded: excellent chemical and physical stability without any changes in purity, crystal form and/or crystallinity
- 1st desorp. Weight % change ([3]; 0% RH): 0.0%
- 1st sorp. Weight % change ([3]; 0% RH): 0.0%
- 2nd desorp. Weight % change ([3]; 0% RH): 0.0%
- 2nd sorp. Weight % change ([3]; 0% RH): 0.0%
- 1st desorp. Weight % change ([3]; 10% RH): 0.1%
- 1st sorp. Weight % change ([3]; 10% RH): 0.1%
- 2nd desorp. Weight % change ([3]; 10% RH): 0.1%
- 2nd sorp. Weight % change ([3]; 10% RH): 0.1%
- 1st desorp. Weight % change ([3]; 20% RH): 0.3%
- 1st sorp. Weight % change ([3]; 20% RH): 0.2%
- 2nd desorp. Weight % change ([3]; 20% RH): 0.3%
- 2nd sorp. Weight % change ([3]; 20% RH): 0.2%
- 1st desorp. Weight % change ([3]; 30% RH): 0.4%
- 1st sorp. Weight % change ([3]; 30% RH): 0.3%
- 2nd desorp. Weight % change ([3]; 30% RH): 0.4%
- 2nd sorp. Weight % change ([3]; 30% RH): 0.3%
- 1st desorp. Weight % change ([3]; 40% RH): 0.5%
- 1st sorp. Weight % change ([3]; 40% RH): 0.4%
- 2nd desorp. Weight % change ([3]; 40% RH): 0.5%
- 2nd sorp. Weight % change ([3]; 40% RH): 0.4%
- 1st sorp. Weight % change ([3]; 50% RH): 0.5%
- 2nd desorp. Weight % change ([3]; 50% RH): 0.8%
- 1st sorp. Weight % change ([3]; 60% RH): 0.6%
- 2nd desorp. Weight % change ([3]; 60% RH): 0.9%
- 1st sorp. Weight % change ([3]; 70% RH): 0.7%
- 2nd desorp. Weight % change ([3]; 70% RH): 1.0%
- 1st sorp. Weight % change ([3]; 80% RH): 0.9%
- 2nd desorp. Weight % change ([3]; 80% RH): 1.2%
- 1st sorp. Weight % change ([3]; 90% RH): 1.2%
- 2nd desorp. Weight % change ([3]; 90% RH): 1.4%
- 1st sorp. Weight % change ([3]; 95% RH): 1.6%
- 2nd desorp. Weight % change ([3]; 95% RH): 1.6%
- Crystallinity change after water sorption and desorption ([3]; DVS 25° C., 40-0-95-0-40% RH cycle): no changes in crystallinity
- Water uptake ([3]; DVS 25° C., at 95% RH): 1.6%

SMILES: CCN(C)S(=O)(=O)Nc1ccc(F)c(Oc2ccc3ncn([C@H]4COC5(CCN(C(=O)CC6(O)CCN(c7cc8c(cc7F)c(N7CCC(=O)NC7=O)nn8C)CC6)CC5)C4)c(=O)c3c2)c1C#N [Compound 1 Form A]
- Comments ([4]; 1,4-Dioxane/heptane (v:v = 1:1)): Sticky material
- Comments ([4]; 2-MeTHF): Medium crystallinity
- XRPD (solid form after equilibration) ([4]; 2-MeTHF): Form C
- Comments ([4]; Acetone): Medium crystallinity
- XRPD (solid form after equilibration) ([4]; Acetone): Form B
- XRPD (solid form after equilibration) ([4]; Acetone/water (v:v = 36:64) a.w. = 0.9): Almost amorphous
- Comments [4, 9]: Clear solution
- Comments: concentration of clear solution [4, 9]: (about 500 mg/mL)
- Comments ([4]; Acetonitrile): Medium crystallinity
- XRPD (solid form after equilibration) ([4]; Acetonitrile): Form B
- Comments ([4]; Acetonitrile/water (v:v = 42:58) a.w. = 0.9): Sticky material
- Comments (crystallinity) [4, 10]: Medium
- XRPD (solid form after equilibration) [4, 10]: Form B
- Comments ([4]; DCM/heptane (v:v = 1:1)): Sticky material
- Comments ([4]; DCM/methanol (v:v = 1:1)): Clear solution
- Comments: concentration of clear solution ([4]; DCM/methanol (v:v = 1:1)): (about 500 mg/mL)
- Comments ([4]; DMF): Clear solution
- Comments: concentration of clear solution ([4]; DMF): (about 500 mg/mL)
- XRPD (solid form after equilibration) ([4]; DMF/water (v:v = 30:70) a.w. = 0.9): Almost amorphous
- Comments [4, 11]: Clear solution
- Comments: concentration of clear solution [4, 11]: (about 500 mg/mL)
- XRPD (solid form after equilibration) ([4]; DMSO/water (v:v = 23:77) a.w. = 0.9): Almost amorphous
- XRPD (solid form after equilibration) ([4]; DMSO/water (v:v = 57:43) a.w. = 0.6): Almost amorphous
- Comments ([4]; Ethanol): Low crystallinity
- XRPD (solid form after equilibration) ([4]; Ethanol): Form A
- Comments ([4]; Ethyl acetate): Medium crystallinity
- XRPD (solid form after equilibration) ([4]; Ethyl acetate): Form C*
- Comments ([4]; Isopropanol): Low crystallinity
- XRPD (solid form after equilibration) ([4]; Isopropanol): Form A
- Comments ([4]; Isopropyl acetate): Low crystallinity
- XRPD (solid form after equilibration) ([4]; Isopropyl acetate): Form A
- Comments ([4]; MTBE): Low crystallinity
- XRPD (solid form after equilibration) ([4]; MTBE): Form A
- Comments ([4]; Methanol): Low crystallinity
- XRPD (solid form after equilibration) ([4]; Methanol): Form B
- XRPD (solid form after equilibration) ([4]; Methanol/water (v:v = 22:78) a.w. = 0.9): Almost amorphous
- Comments [4, 12]: Low crystallinity
- XRPD (solid form after equilibration) [4, 12]: Form B
- Comments ([4]; Methyl ethyl ketone): Medium crystallinity
- XRPD (solid form after equilibration) ([4]; Methyl ethyl ketone): Form B
- Comments ([4]; THF/heptane (v:v = 1:1)): Medium crystallinity
- XRPD (solid form after equilibration) ([4]; THF/heptane (v:v = 1:1)): Form B
- Comments [4, 13]: Clear solution
- Comments: concentration of clear solution [4, 13]: (about 500 mg/mL)
- Comments [4, 14]: Clear solution
- Comments: concentration of clear solution [4, 14]: (about 500 mg/mL)
- Comments ([4]; Toluene): Low crystallinity
- XRPD (solid form after equilibration) ([4]; Toluene): Form A
- Results (After 2 hours) ([5]; 1,4-Dioxane (0.1) / anti-solvent Water (0.2) mL): Sticky material
- Results (After 2 hours) [5, 15]: Low crystallinity
- XRPD [5, 15]: Form A
- Results (After 2 hours) ([5]; DCM (0.2) / anti-solvent Heptane (0.2) mL): Sticky material
- Results (After 2 hours) ([5]; THF (0.2) / anti-solvent Water (0.2) mL): Oil material

— patent US20250289827A1, “MORPHIC FORMS OF A MUTANT BRAF DEGRADER AND METHODS OF MANUFACTURE THEREOF” (C4 THERAPEUTICS, INC., priority 2022, published 2025)
